Experimental data published in EP1433789A1, “Pyrrolopyrazines and their use as selective apoptosis inducers” (Aponetics AG, priority 2002, dated 2004).

Columns and labels:
Assay in all cases: Caspase dependencies (Hoechst 33342 readout with zVAD / zFA)
Format in all cases: cell-based, human
Parameters in all cases: key: 0: no effect; 1: weak effect; 2: strong effect
HeLa = tested on: HeLa
Protocol: (§1) This assay is performed in 96 well tissue culture plates. Appropriate number of cells (adherent cells: 3 - 5*10^3, suspension cells: 8 - 10*10^3) are being seeded out in 80 µl complete medium. Adherent cells are incubated for 24 h for proper spreading out before addition of test compounds while suspension cells are immediately treated with test compounds after seeding out. The test compounds are added in 20 µl complete medium containing max 5% DMSO. The final compound concentrations in the assays are 10 µM, 3 µM,1 µM and 0.3 µM, respectively. After 24 h or 48 h incubation at culture conditions, 10 µl medium containing Hoechst 33342 dye (Sigma B-2261) at 2-5 µg/ml are added to each well. The assay plates are then further incubated for 30 minutes and subsequently analyzed with a standard inverted fluorescence microscope. The readout allows the determination of the fraction of apoptotic nuclei as well as other morphological criteria specific for apoptosis as a function of the treatment. The following scores are used: 0 relating to no activity, 1 relating to weak activity comprising less than 50% of the cells and score 2 relating to strong activity comprising more than 50% of the cells.
(§2) Caspase dependencies are being evaluated by combining the compound treatment with the pan-caspase inhibitor zVAD or its control peptide zFA (ICN Pharmaceuticals # FK009 and FK029, respectively). Both peptides are being used at 20 µM concentration. In case of caspase dependencies a clear inhibition of the specific readout in all apoptosis tests should be detected. By comparing the readout of zVAD and zFA treated samples with the compound control it is possible to detect caspase resp. cystein proteinase dependencies. In case of inhibition by zVAD but not by zFA a clear caspase dependency is obvious. An inhibition by zVAD as well as by zFA points towards the involvement of cystein proteinases in the apoptotic cascade. […]

K562 = tested on: K562
Protocol: as §1, §2

KB = tested on: KB
Protocol: as §1, §2

Jurkat = tested on: Jurkat
Protocol: as §1, §2

CC1(C)Cc2ccccc2-c2c(Br)c3nc4ccccc4nc3n21 [No. 2, 13-Bromo-6,6-dimethyl-5,6-dihydro-6a,7,12-triaza-dibenzo[a,h]fluorene]
nuclear fragmentation visualized by Hoechst 33342 staining (HeLa; 24h, conc 10, no peptide): 2 | nuclear fragmentation visualized by Hoechst 33342 staining (HeLa; 24h, conc 10, with zFA 20 µM): 2 | nuclear fragmentation visualized by Hoechst 33342 staining (HeLa; 24h, conc 10, with zVAD 20 µM): 1 | nuclear fragmentation visualized by Hoechst 33342 staining (HeLa; 48h, conc 10, no peptide): 2 | nuclear fragmentation visualized by Hoechst 33342 staining (HeLa; 48h, conc 10, with zFA 20 µM): 2 | nuclear fragmentation visualized by Hoechst 33342 staining (HeLa; 48h, conc 10, with zVAD 20 µM): 2 | nuclear fragmentation visualized by Hoechst 33342 staining (K562; K562, 24h, conc 10, no peptide): 2 | nuclear fragmentation visualized by Hoechst 33342 staining (K562; K562, 24h, conc 10, with zFA 20 µM): 2 | nuclear fragmentation visualized by Hoechst 33342 staining (K562; K562, 24h, conc 10, with zVAD 20 µM): 2 | nuclear fragmentation visualized by Hoechst 33342 staining (K562; K562, 48h, conc 10, no peptide): 2 | nuclear fragmentation visualized by Hoechst 33342 staining (K562; K562, 48h, conc 10, with zFA 20 µM): 2 | nuclear fragmentation visualized by Hoechst 33342 staining (K562; K562, 48h, conc 10, with zVAD 20 µM): 2 | nuclear fragmentation visualized by Hoechst 33342 staining (KB; 24h, conc 10, no peptide): 2 | nuclear fragmentation visualized by Hoechst 33342 staining (KB; 24h, conc 10, with zFA 20 µM): 1 | nuclear fragmentation visualized by Hoechst 33342 staining (KB; 24h, conc 10, with zVAD 20 µM): 1 | nuclear fragmentation visualized by Hoechst 33342 staining (KB; 48h, conc 10, no peptide): 2 | nuclear fragmentation visualized by Hoechst 33342 staining (KB; 48h, conc 10, with zFA 20 µM): 2 | nuclear fragmentation visualized by Hoechst 33342 staining (KB; 48h, conc 10, with zVAD 20 µM): 2 | nuclear fragmentation visualized by Hoechst 33342 staining (Jurkat; 24h, conc 3, no peptide): 2 | nuclear fragmentation visualized by Hoechst 33342 staining (Jurkat; 24h, conc 3, with zFA 20 µM): 2 | nuclear fragmentation visualized by Hoechst 33342 staining (Jurkat; 24h, conc 3, with zVAD 20 µM): 2 | nuclear fragmentation visualized by Hoechst 33342 staining (Jurkat; 48h, conc 3, no peptide): 2 | nuclear fragmentation visualized by Hoechst 33342 staining (Jurkat; 48h, conc 3, with zFA 20 µM): 2 | nuclear fragmentation visualized by Hoechst 33342 staining (Jurkat; 48h, conc 3, with zVAD 20 µM): 2
